From ChEMBL document CHEMBL5053549, “Discovery of Potent and Novel Dual PARP/BRD4 Inhibitors for Efficient Treatment of Pancreatic Cancer” (J Med Chem, 2021) come the findings set out here.

Each structure is given as a SMILES string. Active and inactive are the calls of the source. The rule behind the calls is not given here.

The test system of data set [1] is SW1990. Briefly: Induction of apoptosis in human SW1990 cells assessed as necrotic cells at 4 uM after 4 days by Annexin V-FITC and propidium iodide staining based flow cytometry (reference value: 1.89%). Type of data set: functional. As to conditions: time 4 day.
Data set [2] relates to SW1990. Briefly: Inhibition of homologous recombinant repair in human SW1990 cells assessed as reduction in Rad51 expression at 4 uM after 4 days by Western blot analysis. Format: functional, cell-based. Particulars: time 4.0 day. (In general: Immunoblotting shows a protein as a band on a membrane.)
Data set [3] relates to SW1990. Briefly: Inhibition of homologous recombinant repair in human SW1990 cells assessed as reduction in Rad51 expression at 4 uM after 4 days by Q-PCR analysis. Format: functional, cell-based. Particulars: time 4.0 day.
Data set [4] deals with Mus musculus. Briefly: In vivo inhibition of BRD4 expression in human SW1900 cells xenografted in BALB/c mouse assessed as reversal of Olaparib-induced BRD4 accumulation at 15 mg/kg, ip administered for 28 consecutive days in presence of 45 mg/kg Olaparib by Western blot analysis. Format: functional, organism-based. As to conditions: time 28.0 day. For orientation: A xenograft is tissue or cells of one species grown in another, often human tumour cells in immunodeficient mice.

Data set [5] relates to SW1990. Briefly: Effect on cell cycle progression in human SW1990 cells assessed as reduction in Olaparib-induced CCND1 expression at 1 uM after 4 days in presence of Olaparib by Q-PCR analysis. Type of data set: functional, cell-based. As to conditions: time 4.0 day.
The test system of data set [6] is SW1990. Briefly: Effect on cell cycle progression in human SW1990 cells assessed as reduction in Olaparib-induced CCND1 expression at 1 uM after 4 days in presence of Olaparib by Western blot analysis. Type of data set: functional, cell-based. Particulars: time 4.0 day.
Data set [7] concerns SW1990. Briefly: Induction of cell cycle arrest in human SW1990 cells assessed as accumulation of cells at S phase at 4 uM incubated for 4 days by propidium iodide staining based flow cytometry (reference value: 29.32%). Type of data set: functional. Particulars: time 4 day. Background: A flow cytometer gives signals particle by particle.
For data set [8], the system named is SW1990. Briefly: Effect on cell cycle progression in human SW1990 cells assessed as reduction in Olaparib-induced CDK6 expression at 1 uM after 4 days in presence of Olaparib by Q-PCR analysis. Format: functional, cell-based. As to conditions: time 4.0 day.
The test system of data set [9] is SW1990. Briefly: Effect on cell cycle progression in human SW1990 cells assessed as reduction in Olaparib-induced PLK1 expression at 1 uM after 4 days in presence of Olaparib by Western blot analysis. Particulars: time 4.0 day. Type of data set: functional, cell-based.
Data set [10] relates to SW1990. Briefly: Inhibition of homologous recombinant repair in human SW1990 cells assessed as reduction in c-Myc expression at 4 uM after 4 days by Western blot analysis. Format: functional, cell-based. Particulars: time 4.0 day.
The subject of data set [11] is Mus musculus. Briefly: In vivo inhibition of BRD4 expression in human SW1900 cells xenografted in BALB/c mouse assessed as reversal of Olaparib-induced BRD4 accumulation at 15 mg/kg, ip administered for 28 consecutive days in presence of 45 mg/kg Olaparib by immunohistochemical analysis. Type of data set: functional, organism-based. Particulars: time 28.0 day.
Data set [12] has as its system Mus musculus. Briefly: Toxicity in BALB/c mouse xenografted with human SW1990 cells assessed as heart damage at 15 mg/kg, ip administered for 28 consecutive days in presence of 45 mg/kg Olaparib. Type of data set: organism-based. As to conditions: in vivo, 672 h, time 28 day.
Data set [13] concerns SW1990. Briefly: Induction of cell cycle arrest in human SW1990 cells assessed as accumulation of cells at S phase at 1 uM incubated for 4 days in presence of 3 uM Olaparib by propidium iodide staining based flow cytometry (reference value: 29.32%). As to conditions: time 4 day. Type of data set: functional.
The test system of data set [14] is Mus musculus. Briefly: Toxicity in BALB/c mouse xenografted with human SW1990 cells assessed as kidney damage at 15 mg/kg, ip administered for 28 consecutive days by H and E staining based […] microscopic analysis. Particulars: in vivo, 672 h, time 28 day. Type of data set: organism-based.
The test system of data set [15] is Mus musculus. Briefly: Toxicity in BALB/c mouse xenografted with human SW1990 cells assessed as spleen damage at 15 mg/kg, ip administered for 28 consecutive days in presence of 45 mg/kg Olaparib. As to conditions: in vivo, 672 h, time 28 day. Format: organism-based.
The subject of data set [16] is Mus musculus. Briefly: Toxicity in BALB/c mouse xenografted with human SW1990 cells assessed as liver damage at 15 mg/kg, ip administered for 28 consecutive days in presence of 45 mg/kg Olaparib. As to conditions: in vivo, 672 h, time 28 day. Format: organism-based.
Data set [17] relates to SW1990. Briefly: Induction of DNA damage in human SW1990 cells assessed as tail DNA at 4 uM incubated for 4 days by comet assay. Format: functional, cell-based. As to conditions: time 4.0 day.
The target in data set [18] is Bromodomain-containing protein 2 (Homo sapiens, UniProt P25440). Briefly: Inhibition of recombinant BRD2 BD2 (unknown origin) incubated for 120 mins by TR-FRET assay.
Chain of Bromodomain-containing protein 2 (P25440 whole entry): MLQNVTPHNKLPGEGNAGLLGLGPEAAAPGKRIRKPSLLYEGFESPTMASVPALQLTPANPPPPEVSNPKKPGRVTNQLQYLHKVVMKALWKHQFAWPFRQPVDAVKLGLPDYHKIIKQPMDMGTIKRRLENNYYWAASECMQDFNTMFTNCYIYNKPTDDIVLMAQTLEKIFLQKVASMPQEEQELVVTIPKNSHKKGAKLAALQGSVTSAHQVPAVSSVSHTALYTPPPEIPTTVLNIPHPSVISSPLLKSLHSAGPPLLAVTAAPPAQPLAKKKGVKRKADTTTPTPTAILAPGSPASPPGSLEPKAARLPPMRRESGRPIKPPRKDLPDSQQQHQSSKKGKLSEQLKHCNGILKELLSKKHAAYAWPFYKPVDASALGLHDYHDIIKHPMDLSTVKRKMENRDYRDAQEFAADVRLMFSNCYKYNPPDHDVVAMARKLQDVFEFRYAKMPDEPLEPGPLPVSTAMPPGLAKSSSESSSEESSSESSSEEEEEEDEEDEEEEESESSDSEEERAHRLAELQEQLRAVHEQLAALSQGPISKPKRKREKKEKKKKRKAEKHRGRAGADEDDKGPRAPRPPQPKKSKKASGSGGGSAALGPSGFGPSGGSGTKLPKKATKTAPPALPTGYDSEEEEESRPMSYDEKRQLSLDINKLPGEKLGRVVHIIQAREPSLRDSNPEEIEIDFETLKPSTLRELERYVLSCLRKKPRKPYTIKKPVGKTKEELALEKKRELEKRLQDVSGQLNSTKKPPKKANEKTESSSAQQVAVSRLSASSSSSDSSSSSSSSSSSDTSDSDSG
Data set [19] has as its target T1, Bromodomain-containing protein 4 (Homo sapiens, UniProt O60885). Briefly: Inhibition of recombinant BRD4 BD1 (unknown origin) incubated for 120 mins by TR-FRET assay.
Data set [20] relates to Mus musculus. Briefly: Inhibition of homologous recombinant repair in human SW1990 cells xenografted in BALB/c mouse assessed as reduction in FOXM1 expression at 45 mg/kg, ip after 4 days by immunohistochemical analysis. Particulars: time 4.0 day. Format: functional, organism-based.
Data set [21] deals with Serine/threonine-protein kinase PLK1 (Homo sapiens, UniProt P53350). Briefly: Inhibition of recombinant PLK1 (unknown origin) […] measured after 40 mins by ADP-glo luminescence kinase assay.
Chain of Serine/threonine-protein kinase PLK1 (P53350 whole entry): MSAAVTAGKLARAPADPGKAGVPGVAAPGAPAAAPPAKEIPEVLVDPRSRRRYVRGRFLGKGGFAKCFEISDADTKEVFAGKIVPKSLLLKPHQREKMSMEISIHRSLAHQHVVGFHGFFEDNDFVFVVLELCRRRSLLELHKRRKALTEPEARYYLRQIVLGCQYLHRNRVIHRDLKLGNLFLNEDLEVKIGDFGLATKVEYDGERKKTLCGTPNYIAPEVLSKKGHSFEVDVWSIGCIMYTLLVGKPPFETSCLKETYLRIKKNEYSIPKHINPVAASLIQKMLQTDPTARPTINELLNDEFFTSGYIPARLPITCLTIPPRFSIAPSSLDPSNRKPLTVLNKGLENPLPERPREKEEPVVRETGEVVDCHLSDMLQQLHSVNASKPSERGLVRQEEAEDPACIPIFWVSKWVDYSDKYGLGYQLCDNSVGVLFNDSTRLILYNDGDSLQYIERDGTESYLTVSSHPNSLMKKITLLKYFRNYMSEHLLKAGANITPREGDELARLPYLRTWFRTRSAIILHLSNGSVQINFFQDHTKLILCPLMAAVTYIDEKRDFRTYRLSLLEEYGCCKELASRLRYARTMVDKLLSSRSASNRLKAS
Data set [22] has as its system Mus musculus. Briefly: In vivo inhibition of BRD4 expression in human […] cells xenografted in BALB/c mouse at 45 mg/kg, ip administered for 28 consecutive days by Q-PCR analysis. Type of data set: functional, organism-based. Particulars: time 28.0 day.
For data set [23], the target named is Bromodomain-containing protein 3 (Homo sapiens, UniProt Q15059). Briefly: Inhibition of recombinant BRD3 BD2 (unknown origin) incubated for 120 mins by TR-FRET assay.
Chain of Bromodomain-containing protein 3 (Q15059 whole entry): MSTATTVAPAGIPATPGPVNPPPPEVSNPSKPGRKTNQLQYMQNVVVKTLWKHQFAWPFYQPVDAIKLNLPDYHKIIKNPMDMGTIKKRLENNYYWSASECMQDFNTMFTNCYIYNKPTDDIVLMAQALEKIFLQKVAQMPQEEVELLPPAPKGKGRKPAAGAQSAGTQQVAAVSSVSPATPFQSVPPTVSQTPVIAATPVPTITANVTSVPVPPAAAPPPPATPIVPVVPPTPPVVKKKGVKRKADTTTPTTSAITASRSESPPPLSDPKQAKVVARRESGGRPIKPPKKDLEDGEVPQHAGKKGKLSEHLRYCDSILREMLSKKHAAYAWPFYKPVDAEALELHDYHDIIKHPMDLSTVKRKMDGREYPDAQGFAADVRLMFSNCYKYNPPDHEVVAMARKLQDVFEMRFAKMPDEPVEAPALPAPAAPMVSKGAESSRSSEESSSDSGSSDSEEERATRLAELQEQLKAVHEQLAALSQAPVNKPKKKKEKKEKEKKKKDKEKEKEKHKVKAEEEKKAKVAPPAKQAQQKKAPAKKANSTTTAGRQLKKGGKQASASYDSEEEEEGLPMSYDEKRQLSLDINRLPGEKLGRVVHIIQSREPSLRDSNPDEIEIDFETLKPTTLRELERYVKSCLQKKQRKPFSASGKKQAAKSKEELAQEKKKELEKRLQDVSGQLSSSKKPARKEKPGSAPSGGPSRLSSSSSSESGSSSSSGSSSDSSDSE
Data set [24] has as its system SW1990. Briefly: Induction of DNA damage in human SW1990 cells assessed as tail DNA at 1 to 4 uM incubated for 4 days in presence of 3 uM Olaparib by comet assay. Format: functional, cell-based. As to conditions: dose 1-4 µM, time 4.0 day.
Data set [25] has as its system SW1990. Briefly: Induction of autophagy in human SW1990 cells xenografted in BALB/c mouse assessed as increase in ATG5 expression at 45 mg/kg, ip after 4 days by Western blot analysis. Type of data set: functional, organism-based. As to conditions: time 4.0 day.
Data set [26] concerns Mus musculus. Briefly: Toxicity in BALB/c mouse xenografted with human SW1990 cells assessed as kidney damage at 45 mg/kg, ip administered for 28 consecutive days by H and E staining based […] microscopic analysis. Format: organism-based. As to conditions: in vivo, 672 h, time 28 day.
Data set [27] concerns SW1990. Briefly: Inhibition of colony formation in human SW1990 cells at 1 uM after 14 days by crystal violet staining based microscopic analysis. Type of data set: functional, cell-based. As to conditions: time 14.0 day.
Data set [28] has as its target Poly [ADP-ribose] polymerase 1 (Homo sapiens, UniProt P09874). Briefly: Inhibition of PARP1 (unknown origin) incubated for 45 mins in presence of biotinylated-NAD+ by microplate reader analysis.
Data set [29] concerns the target T1, Bromodomain-containing protein 4. Briefly: Inhibition of recombinant BRD4 (unknown origin) at 1 uM incubated for 120 mins by TR-FRET assay relative to control.
In data set [30] the test system is Mus musculus. Briefly: In vivo inhibition of PARP1 expression in human […] cells xenografted in BALB/c mouse at 45 mg/kg, ip administered for 28 consecutive days by Western blot analysis. Type of data set: functional, organism-based. Particulars: time 28.0 day.
Data set [31] relates to Mus musculus. Briefly: Effect on cell cycle progression in human SW1990 cells xenografted in BALB/c mouse assessed as reduction in E2F2 expression at 45 mg/kg, ip after 4 days by Western blot analysis. Particulars: time 4.0 day. Format: functional, organism-based.
For data set [32], the system named is SW1990. Briefly: Effect on cell cycle progression in human SW1990 cells assessed as reduction in E2F2 expression at 1 to 2 uM after 4 days by Western blot analysis. Particulars: dose 1-2 µM, time 4.0 day. Format: functional, cell-based.
Data set [33] concerns SW1990. Briefly: Induction of autophagy in human SW1990 cells assessed as increase in LC3B expression at 1 to 2 uM incubated for 4 days by immunofluorescence assay. Type of data set: functional, cell-based. Particulars: dose 1-2 µM, time 4.0 day.

Chain of Poly [ADP-ribose] polymerase 1 (P09874 whole entry): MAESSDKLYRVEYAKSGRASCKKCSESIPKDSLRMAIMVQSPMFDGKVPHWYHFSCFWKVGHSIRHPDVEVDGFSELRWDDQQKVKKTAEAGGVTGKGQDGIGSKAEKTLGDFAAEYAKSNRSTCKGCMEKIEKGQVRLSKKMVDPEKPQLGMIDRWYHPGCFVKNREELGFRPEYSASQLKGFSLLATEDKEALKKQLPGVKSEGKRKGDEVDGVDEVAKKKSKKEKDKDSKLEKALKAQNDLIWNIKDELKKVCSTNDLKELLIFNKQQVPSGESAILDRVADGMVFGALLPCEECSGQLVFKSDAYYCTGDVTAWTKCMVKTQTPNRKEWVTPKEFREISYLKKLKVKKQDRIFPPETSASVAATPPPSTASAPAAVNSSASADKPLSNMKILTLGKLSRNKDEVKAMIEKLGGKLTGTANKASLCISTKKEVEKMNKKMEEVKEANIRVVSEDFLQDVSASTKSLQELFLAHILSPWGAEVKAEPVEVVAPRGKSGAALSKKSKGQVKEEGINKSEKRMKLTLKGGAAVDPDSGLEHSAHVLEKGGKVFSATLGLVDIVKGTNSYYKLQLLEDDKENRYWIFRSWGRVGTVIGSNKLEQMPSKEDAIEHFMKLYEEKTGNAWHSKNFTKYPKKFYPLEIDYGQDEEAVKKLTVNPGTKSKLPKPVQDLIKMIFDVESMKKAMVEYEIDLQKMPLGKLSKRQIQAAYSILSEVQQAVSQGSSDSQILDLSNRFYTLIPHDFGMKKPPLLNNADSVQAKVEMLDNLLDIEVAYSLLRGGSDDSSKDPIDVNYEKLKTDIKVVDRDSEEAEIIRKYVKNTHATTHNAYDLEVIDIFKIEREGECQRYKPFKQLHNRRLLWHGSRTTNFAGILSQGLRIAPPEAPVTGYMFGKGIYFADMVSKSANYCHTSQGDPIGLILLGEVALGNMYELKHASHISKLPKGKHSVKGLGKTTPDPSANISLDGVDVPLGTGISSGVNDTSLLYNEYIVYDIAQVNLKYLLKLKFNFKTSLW

For orientation: inhibition means the relative decrease from the control value, in per cent. For `Cc1sc2c(c1C)C(c1ccc(Cl)cc1)=N[C@@H](CC(=O)OC(C)(C)C)c1nnc(C)n1-2`, the Activity in the data set on SW1990 [1] was 1.23%; with SW1990 [7] it was 19.43%; in the data set on Mus musculus [12], “Non-Toxic”; in the data set on SW1990 [13] it was 19.33%; with Mus musculus [14], “Non-Toxic”; in the data set with Mus musculus [15], “Non-Toxic”. Also, in the data set on Mus musculus [16], the Activity entry was “Non-Toxic”. The inhibition result with SW1990 [2], with SW1990 [3] and in the data set with SW1990 [10] was “Active” in each case. Further, the result in the data set with Mus musculus [4], in the data set with SW1990 [5], in the data set with SW1990 [6], in the data set on SW1990 [8], in the data set with SW1990 [9] and in the data set with Mus musculus [11] was Active. The outcome with SW1990 [17] was Active.
Broadly, the IC50 is the midpoint of a concentration-inhibition curve. As for `CC[C@@H]1C(=O)N(C)c2cnc(N(C)c3ccc(-c4nc5c(C(N)=O)cccc5[nH]4)cc3OC)nc2N1C1CCCC1`, the IC50 was 168 nM in [18]; 75 nM in data set [19]; 2030 nM in data set [21]; 123 nM in data set [23]; 13 nM in data set [28]. Besides, the inhibition entry in the data set with Mus musculus [20] and in the data set on SW1990 [27] was “Active” each time. Also, the outcome in the data set on Mus musculus [22], with SW1990 [24], in the data set with SW1990 [25], with Mus musculus [30], in the data set on Mus musculus [31] and in the data set with SW1990 [32] was Active. For the same compound, in the data set with SW1990 [33], the result was Active. Also, in the data set with Mus musculus [26], the Activity result was “Non-Toxic”. Besides, in data set [29], the inhibition is 76.2%.
